The IC50 is the concentration that gives 50% inhibition.

The target in data set [1] is T1, rat lens aldose reductase (RLAR) (Rattus norvegicus, UniProt P07943).
T1 construct: Rat lens (RL) homogenate was prepared according to the modified method of Hayman and Kinoshita; from tissue; host or cells: lens of male Sprague-Dawley rats (homogenate supernatant, partially purified)
Briefly: Rat lens AR inhibitory activity assay. Format: biochemical. As to conditions: isolated compounds; for IC50: read-out: RLAR inhibition IC50.

The target in the next data set is T2, rat lens AR (Rattus norvegicus, UniProt P07943).
T2 construct: Rat lens (RL) homogenate was prepared according to the modified method of Hayman and Kinoshita; from tissue; host or cells: lens of male Sprague-Dawley rats (homogenate supernatant, partially purified)
Briefly: HPLC microfractionation rat lens AR assay. As to conditions: amount of efficacy in HPLC microfractionation (Table 3). On the set-up: concentration or dose not given beside the values. Type of data set: biochemical.

Data set [2] can be described thus: ABTS radical scavenging activity (TEAC assay). As to conditions: for IC50: read-out: Antioxidant IC50.
Data set [3] can be described thus: ABTS-offline HPLC assay of the EtOAc fraction. As to conditions: 254 nm; for Peak area change after ABTS (in words): EtOAc fraction spiked with ABTS solution, Figure 1(a); for Antioxidant quantitative reduction (%): amount of peak decrease in ABTS-offline HPLC.
Data set [4] in a line: Partition coefficient (K) in two-phase HSCCC solvent systems. Type of data set: physicochemical.
[5] abbreviates: n-Hexane-ethyl acetate-methanol-water 2.5 : 7.5 : 5 : 5 (v/v).
[6] abbreviates: n-Hexane-ethyl acetate-methanol-water 3 : 7 : 4.5 : 5.5 (v/v).
The mark [7] stands for this setting: n-Hexane-ethyl acetate-methanol-water 4 : 6 : 2.5 : 7.5 (v/v).
Where [8] appears, read: n-Hexane-ethyl acetate-methanol-water 4 : 6 : 3.5 : 5.5 (v/v).

Structures are written as SMILES.

Consider `O=C(/C=C/c1ccc(O)c(O)c1)O[C@@H]1C[C@](O)(C(=O)O)C[C@@H](O)[C@H]1O` [Compound 1, chlorogenic acid], for which the IC50 in data set [1] turned out to be 4.2 ± 3.2 µM. For the same molecule, the “RLAR inhibition, Inhibition (%)” value on rat lens AR amounted to 51.02%.
With `COc1cc(/C=C/C(=O)O)ccc1O` [Compound 3, trans-ferulic acid], the IC50 in data set [2] (isolated compounds) is 13.51 ± 0.04 µM. Moreover, in data set [3], the “Peak area change after ABTS (in words)” value is recorded as “peak area reductions” and the “Antioxidant quantitative reduction (%)” value worked out at 20.06%. In data set [1], the “RLAR activity (in words)” value was “did not have RLAR activity” and the IC50 is > 500 µM. In addition, the “RLAR inhibition, Inhibition (%)” value at rat lens AR amounted to 5.21%.
Turning to `COc1c(O[C@@H]2O[C@H](CO)[C@@H](O)[C@H](O)[C@H]2O)cc2occ(-c3ccc(O)cc3)c(=O)c2c1O` [Compound 4, tectoridin], in data set [2] (isolated compounds), the “Antioxidant activity (in words)” value is on record as “did not have antioxidant activity” and the IC50 is > 500 µM. In data set [3], the “Peak area change after ABTS (in words)” value was “slightly decreased” and the “Antioxidant quantitative reduction (%)” value was found to be 8.43%. In addition, in data set [1], the IC50 is 50.4 ± 2.17 µM. The “RLAR inhibition, Inhibition (%)” value on rat lens AR is 43.37%.
For `Oc1cc(O)cc(/C=C/c2ccc(O)c(O)c2)c1` [Compound 5, piceatannol], the K values was 0.37 in data set [4] (setting [5]), 0.34 in data set [4] (setting [6]), 3.91 in data set [4] (setting [7]) and 0.37 in data set [4] (setting [8]). Besides, the 50% inhibitory concentration (IC50) was 6.73 ± 0.04 µM in data set [2] (isolated compounds) and > 500 µM in data set [1]. Also, the “Peak area change after ABTS (in words)” value in data set [3] is “peak area reductions”. Also, the “Antioxidant quantitative reduction (%)” value in data set [3] is 34.68%. Further, the “RLAR activity (in words)” value in data set [1] is “did not have RLAR activity”.
As for `Oc1ccc(/C=C/c2cc(O)cc(O)c2)cc1` [Compound 6, resveratrol], the K values came out at 9.56 in data set [4] (n-Heptane-ethyl acetate-methanol-water 1 : 6 : 1 : 6 (v/v)); 0.57 in data set [4] (setting [5]); 0.59 in data set [4] (setting [6]); 4.62 in data set [4] (setting [7]); 0.90 in data set [4] (setting [8]). The IC50 in data set [2] (isolated compounds) came out at 11.05 ± 0.04 µM; in data set [1] it was 118 ± 3.12 µM. The “RLAR inhibition, Inhibition (%)” value on rat lens AR stood at 29.31%.
Take `O=c1c(-c2ccc(O)cc2)coc2cc(O)ccc12` [Compound 7, daidzein]: the IC50 in data set [2] (isolated compounds) is > 500 µM; in data set [1] it was 152 ± 2.91 µM. Further, the “Antioxidant quantitative reduction (%)” value in data set [3] is recorded as 0.48%. Further, the “RLAR inhibition, Inhibition (%)” value on rat lens AR amounted to 28.14%.
Consider `O=c1c(-c2ccc(O)cc2)coc2cc(O)cc(O)c12` [Compound 8, genistein], for which the K values in data set [4] (n-Hexane-ethyl acetate-methanol-water 1 : 3 : 1 : 3 (v/v)) stood at 35.34; in data set [4] (setting [5]), 2.04; in data set [4] (setting [6]), 2.52; in data set [4] (setting [7]), 15.01; in data set [4] (setting [8]), 3.73. For the same molecule, the figures for the IC50 in data set [2] (isolated compounds) and in data set [1] were > 500 µM and 57.1 ± 3.23 µM, respectively. The “Antioxidant quantitative reduction (%)” value in data set [3] amounted to 2.24%. For the same molecule, the “RLAR inhibition, Inhibition (%)” value at rat lens AR is recorded as 38.54%.
On to `COc1ccc(-c2coc3cc(O)ccc3c2=O)cc1` [Compound 9, formononetin], for which the K values in data set [4] (setting [5]) was determined as 0.33; in data set [4] (setting [6]), 0.40; in data set [4] (setting [7]) it was 3.39; in data set [4] (setting [8]) it was 0.39. Moreover, the IC50 is > 500 µM in data set [2] (isolated compounds) and 69.2 ± 2.57 µM in data set [1]. For the same molecule, the “Antioxidant quantitative reduction (%)” value in data set [3] amounted to 0.69%. In addition, the “RLAR inhibition, Inhibition (%)” value on rat lens AR amounted to 30.11%.
For the molecule `Cc1c(C)c2c(c(C)c1O)CCC(C)(C(=O)O)O2` (stereo not drawn) [Trolox, 6-hydroxy-2,5,7,8-tetrame-thylchroman-2-carboxylic acid, reference compound], the “Antioxidant IC50” value in data set [2] (concentration of 50% inhibition) is 8.72 ± 0.01 µg/mL. For the same molecule, the “Antioxidant TEAC (Trolox equivalent antioxidant capacity)” value in data set [2] (relative to Trolox = 1.00) is 1.00.
